Key:
[1] = system: Hsp70 (HspA1A and HspA1B) in PBMC; test: Hsp70 level in PBMC samples of NPC patients treated with arimoclomol (ELISA); assay type: in vivo, human
Procedure: Whole blood samples were collected in 6 mL EDTA tubes at the clinical study sites and shipped ambient to a central laboratory for sample preparation.
Clinical study samples (n=26) were obtained from individuals with Niemann Pick disease Type C (NPC patients), who were 2 to 18 years of age, diagnosed with NPC, had at least one neurological symptom and had preserved ability to walk with assistance. Patients were maintained on standard therapy during the study. Samples were collected at a first clinical study visit (inclusion) and at a second clinical study visit 6 to 14 months following the first visit.
Plasma was separated from whole blood by centrifugation at room temperature. Blood volume was restored in PBS and PBMCs were isolated by density gradient centrifugation using Histopaque™. Viable PBMC cell count was determined by flow cytometry. Aliquots of 1 mio. PBMC were generated and stored frozen at −70° C.
Hsp70 was quantified using the Human/Mouse/Rat total HSP70 DuoSet® IC ELISA kit (R&D Systems). Prior to analysis of the clinical study samples, the analytical method had been qualified for determination of Hsp70 in human PBMC samples. The Human/Mouse/Rat total HSP70 DuoSet® IC ELISA kit detects the levels of HspA1A and HspA1B with no cross-reactivity of HspA5 and HspA8.
The materials and methods were performed as described in Example 1.
The Hsp70 concentration was measured in homogenates of Peripheral Blood Mononuclear Cells (PBMC). Hsp70 was determined in an observational study (FIGS. 4 and 5), at screening (pretreatment) and then again after 6-14 months (baseline). Patients were treated for 12 months with arimoclomol (Clinicaltrials.gov identifier NCT02612129). Hsp70 levels were analyzed by the Wilcoxon signed rank test for the 12 patients on arimoclomol with baseline and 12 months data point comparing the Hsp70 levels before and after 12 months of treatment.

mutant NPC1 mice = conditions: cited from earlier work
[2] = PBMC homogenates, 12 months of treatment vs baseline, n=12

In the case of `[O-][n+]1cccc(/C(Cl)=N/OC[C@H](O)CN2CCCCC2)c1` [arimoclomol, N-[2-hydroxy-3-(1-piperidinyl)-propoxy]-pyridine-1-oxide-3-carboximidoyl chloride], the “Hsp70 change from baseline, Median” value [1, 2] is reported as 1175.5 pg/mL, the “Hsp70 change from baseline, Min-max” value [1, 2] is reported as 234.7 to 6509.0 pg/mL and the “Hsp70 change from baseline, mean (SD)” value [1, 2] is reported as 1815.0 (1754.6) pg/mL. The “PBMC-level of Hsp70 compared to baseline” value ([1]; treatment for 12 months) was “significantly increased”, the “neuronal as well as visceral pathology” value (mutant NPC1 mice) was “reversed” and the “size of the lysosomal compartment” value (mutant NPC1 mice) was “reduced”.

— patent publication US20210164997A1, “HSP70 PROTEIN LEVELS IN PBMC SAMPLES AS BIOMARKER FOR DISEASE” (Orphazyme A/S, priority 2018, published 2021)
